Experimental data reported in US8420657B2 (Novartis AG, priority 2008, dated 2013).
pIC50: −log10 of the molar value.

Legend:
[1] = tested on: JAK2-dependent nuclear translocation of STAT5-GFP in U-2 OS osteosarcoma cells; test: STAT5 nuclear translocation assay (Cellomics), rhEpo stimulated U-2 OS STAT5-GFP cells; format: cell-based; settings: Homo sapiens, U2OS; STAT5 translocation pathway
Source text: The medium-throughput (96-well format) cellular automated fluorescence microscopy Cellomics assay can be routinely used to assess the functional activation of Janus Kinases (JAKs), based on the nuclear translocation of their substrate, Signal Transducer and Activator of Transcription (STAT). Nuclear translocation can be monitored either in HT1080 fibrosarcoma cells stably transfected with STAT1 fused to Green Fluorescence Protein (GFP) or in U-2 OS osteosarcoma cells stably transfected with STAT5 fused to Green Fluorescence Protein (GFP). Stimulation of HT1080 cells with interferon-γ (IFN-γ) results in JAK1/JAK2-dependent nuclear translocation of STAT1-GFP, whereas stimulation of U-2 OS cells with recombinant human erythropoietin (rhEpo) results in JAK2-dependent nuclear translocation of STAT5-GFP, both of which can be quantified using the Cellomics Cyto/NucTrans software package. This assay may be used to provide an assessment of the nuclear-cytoplasmic differential (NCD) of STAT-GFP using Hoechst dye to define the boundaries of the nucleus.
U-2 OS osteosarcoma cells may be obtained from ATCC and can be cultured in standard RPMI medium supplemented with 10% FCS and 2 mM L-glutamine. Cells can be stably transfected with STAT5a-GFP using Lipofectamine following the manufacturers' protocol. 24 hours after transfection the medium can be replaced and selected in 400 μg/ml Geneticin. Subsequently, cells can be stably transfected with EpoR using Lipofectamine following the manufacturers' protocol. 24 hours after transfection the medium can be replaced and cells selected in 100 μg/ml Hygromycin B.
Compounds can be dissolved in DMSO to a final stock concentration of 10 mM and stored as aliquots at 4° C. Compounds may be pre-diluted in 100% DMSO at 10 mM, 3 mM 1 mM, 0.3 mM, 0.1 mM, 0.03 mM, 0.01 mM and 0.003 mM. Subsequently, compounds may be diluted in medium and added in 50 μl to the cells. The final compound concentrations tested may be 10 μM, 3 μM 1 μM, 0.3 μM, 0.1 μM, 0.03 μM, 0.01 μM and 0.003 μM and the final DMSO concentration can be 0.1%.
U-2 OS may be seeded at a cell density of 12,000 cells per well in clear-bottom black 96-well Packard View-Plates™. The following day, medium can be removed and replaced with medium containing either the vehicle (DMSO) or increasing concentrations of test compounds for 30 minutes at 37° C. Cells can then be stimulated for 1 hour by adding 10 μl per well of 50 U/ml rhEpo to obtain 5 U/ml of rhEpo as the final concentration. Following treatments, cells can fixed and processed as described above.
The plates can be read on a Cellomics® ArrayscanII automated fluorescence microscope plate reader equipped with a Mercury-Xenon white light illumination source and a Zeiss Axiovert inverted microscope, using the XF100 dichroic/emission filter cube and matching excitation filters, 10× magnification, and a 0.3 numerical aperture objective. Image acquisition and analysis can be performed using a customized protocol based on the ‘NuclearTranslocation’ Bioapplication. For each well, multiple images (fields) can be acquired until a minimum of 1000 cells are counted using two 2 channels: Channel 1 (Hoechst)=focus+nuclear mask, Channel 2 (GFP)=signal quantification in mask areas as outlined below. Nuclei may be first identified based on the Hoechst staining and a mask generated for each nucleus that then serves as a template to generate a circle (eroded inwards by 1 pixel) and a 3 pixel-wide collar-like ring (off-set outwards by 1 pixel), in which the nuclear and cytoplasmic intensity of GFP, respectively, are quantified in the corresponding channel. High content analysis yields numerous measurements per cell and the GFP intensity differential between the nuclear and the cytoplasmic masks may be chosen as a measure of sub-cellular STAT-GFP relocation. The resulting values may be averaged for all cells in the well to return a single measurement plus standard deviation. […]

GST-JAK2(808-1132) = target: T1, GST-JAK2(808-1132) (Homo sapiens, UniProt O60674); test: JAK2 kinase assay (Caliper mobility shift, LabChip 3000); format: biochemical
T1 construct: GST-JAK2(808-1132); purchased Invitrogen (Carlsbad, USA) #4288
Summary of the method: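 Eight-point compound series (final 10–0.003 μM) tested on purchased GST-JAK2 kinase domain (808-1132). Peptide FITC-JAK3tide plus ATP reacted 60 min, 30 °C, then quenched with EDTA; turnover from charge-based separation of substrate and product.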

T1 sequence (O60674 808-1132): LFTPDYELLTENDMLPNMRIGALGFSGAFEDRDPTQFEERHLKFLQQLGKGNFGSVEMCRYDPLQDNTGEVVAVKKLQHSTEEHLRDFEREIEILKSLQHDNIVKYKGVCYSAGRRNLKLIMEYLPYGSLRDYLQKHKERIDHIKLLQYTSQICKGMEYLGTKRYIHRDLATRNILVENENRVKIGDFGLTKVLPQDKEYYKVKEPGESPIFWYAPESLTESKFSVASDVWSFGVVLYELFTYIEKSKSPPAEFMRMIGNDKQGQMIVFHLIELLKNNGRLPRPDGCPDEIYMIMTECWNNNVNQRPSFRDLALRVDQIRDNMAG

pIC50 [1]	pIC50 (GST-JAK2(808-1132))	Compound
7.77	≥ 8.52	Cc1ccc(Nc2ncc3ccn(-c4cc(F)c(CN5CCOCC5)c(F)c4)c3n2)cc1CN1CCN(C)C(=O)C1 [Example 395, 4-{5-[7-(3,5-Difluoro-4-morpholin-4-ylmethyl-phenyl)-7H-pyrrolo[2,3-d]pyrimidin-2-ylamino]-2-methyl-benzyl}-1-methyl-piperazin-2-one]
7.41	8.37	Cc1ccc(Nc2ncc3ccn(-c4cc(F)c(CN5CCOCC5)c(F)c4)c3n2)cc1Cn1cc(CO)nn1 [Example 419, (1-{5-[7-(3,5-Difluoro-4-morpholin-4-ylmethyl-phenyl)-7H-pyrrolo[2,3-d]pyrimidin-2-ylamino]-2-methyl-benzyl}-1H-[1 2,3]triazol-4-yl)-methanol]
7.37	8.34	Cc1ccc(Nc2ncc3ccn(-c4cc(F)c(CN5CCOCC5)c(F)c4)c3n2)cc1CN1CCN(C2CC2)CC1 [Example 365, [3-(4-Cyclopropyl-piperazin-1-ylmethyl)-4-methyl-phenyl]-[7-(3,5-difluoro-4-morpholin-4-ylmethyl-phenyl)-7H-pyrrolo[2,3-d]pyrimidin-2-yl]-amine]
7.85	≥ 8.52	Cc1cc(Nc2ncc3ccn(-c4cc(F)c(CN5CCOCC5)c(F)c4)c3n2)cnc1N1CCNCC(F)(F)C1 [Example 512, [6-(6,6-Difluoro-[1,4]diazepan-1-yl)-5-methyl-pyridin-3-yl]-[7-(3,5-difluoro-4-morpholin-4-ylmethyl-phenyl)-7H-pyrrolo[2,3-d]pyrimidin-2-yl]-amine]
6.85	8.25	Cc1ccc(Nc2ncc3ccn(-c4cc(F)c(CN5CCOCC5)c(F)c4)c3n2)cc1CN1CCNC(C(F)(F)F)C1 (racemic) [Example 404, [7-(3,5-Difluoro-4-morpholin-4-ylmethyl-phenyl)-7H-pyrrolo[2,3-d]pyrimidin-2-yl]-[4-methyl-3-(3-trifluoromethyl-piperazin-1-ylmethyl)-phenyl]-amine]
7.04	8.44	CN1CCN(Cc2ccc(Nc3ncc4ccn(-c5cc(F)c(CN6CCOCC6)c(F)c5)c4n3)cn2)CC1 [Example 472, [7-(3,5-Difluoro-4-morpholin-4-yl methyl-phenyl)-7H-pyrrolo[2,3-d]pyrimidin-2-yl]-[6-(4-methyl-piperazin-1-ylmethyl)-pyridin-3-yl]-amine]
6.83	≥ 8.52	CN(C)CCN1CCN(Cc2cc(Nc3ncc4ccn(-c5cc(F)c(CN6CCOCC6)c(F)c5)c4n3)ccn2)CC1 [Example 396, [7-(3,5-Difluoro-4-morpholin-4-ylmethyl-phenyl)-7H-pyrrolo[2,3-d]pyrimidin-2-yl]-{2-[4-(2-dimethylamino-ethyl)-piperazin-1-ylmethyl]-pyridin-4-yl}-amine]

Second part, the compound before the results:

Compound	pIC50 [1]	pIC50 (GST-JAK2(808-1132))
C[C@@H]1CN(Cc2ccc(Nc3ncc4ccn(-c5ccc(S(=O)(=O)NC(C)(C)C)cc5)c4n3)cc2)C[C@H](C)N1 [Example 464, N-tert-Butyl-4-{2-[4-(cis-3,5-dimethyl-piperazin-1-ylmethyl)-phenylamino]-pyrrolo[2,3-d]pyrimidin-7-yl}-benzenesulfonamide]	7.23	≥ 8.52
Cc1ccc(Nc2ncc3ccn(-c4cc(F)c(CN5CCOCC5)c(F)c4)c3n2)cc1CN1CCNC(C)(C)C1 [Example 385, [7-(3,5-Difluoro-4-morpholin-4-ylmethyl-phenyl)-7H-pyrrolo[2,3-d]pyrimidin-2-yl]-[3-(3,3-dimethyl-piperazin-1-ylmethyl)-4-methyl-phenyl]-amine]	7.18	≥ 8.52
Fc1cc(-n2ccc3cnc(Nc4ccc(OCCN5CCOCC5)nc4)nc32)cc(F)c1CN1CCOCC1 [Example 513, [7-(3,5-Difluoro-4-morpholin-4-ylmethyl-phenyl)-7H-pyrrolo[2,3-d]pyrimidin-2-yl]-[6-(2-morpholin-4-yl-ethoxy)-pyridin-3-yl]-amine]	6.94	8.34
C[C@@H]1CN(c2ccc(Nc3ncc4ccn(-c5ccc(C(=O)N6CCOCC6)c(F)c5)c4n3)cn2)C[C@H](C)N1 [Example 499, (4-{2-[6-(cis-3,5-Dimethyl-piperazin-1-yl)-pyridin-3-ylamino]-pyrrolo[2,3-d]pyrimidin-7-yl}-2-fluoro-phenyl)-morpholin-4-yl-methanone]	6.66	8.32
O=C1CN(c2cc(Nc3ncc4ccn(-c5cc(F)c(CN6CCOCC6)c(F)c5)c4n3)ccn2)CCN1 [Example 500, 4-{4-[7-(3,5-Difluoro-4-morpholin-4-ylmethyl-phenyl)-7H-pyrrolo[2,3-d]pyrimidin-2-ylamino]-pyridin-2-yl}-piperazin-2-one]	7.80	≥ 8.52
Fc1cc(-n2ccc3cnc(Nc4ccc(CC5CCNCC5)cc4)nc32)cc(F)c1CN1CCOCC1 [Example 383, [7-(3,5-Difluoro-4-morpholin-4-ylmethyl-phenyl)-7H-pyrrolo[2,3-d]pyrimidin-2-yl]-(4-piperidin-4-ylmethyl-phenyl)-amine]	8.21	8.29
Cc1ccc(Nc2ncc3ccn(-c4cc(F)c(CN5CCOCC5)c(F)c4)c3n2)cc1CN1[C@H]2CC[C@@H]1CC2 [Example 436, [3-(7-Aza-bicyclo[2.2.1]hept-7-ylmethyl)-4-methyl-phenyl]-[7-(3,5-difluoro-4-morpholin-4-ylmethyl-phenyl)-7H-pyrrolo[2,3-d]pyrimidin-2-yl]-amine]	8.21	≥ 8.52
Fc1cc(-n2ccc3cnc(Nc4ccc(C5CCNCC5)nc4)nc32)cc(F)c1CN1CCOCC1 [Example 501, [7-(3,5-Difluoro-4-morpholin-4-ylmethyl-phenyl)-7H-pyrrolo[2,3-d]pyrimidin-2-yl]-(1,2′,3′,4′,5′,6′-hexahydro-[2,4′]bipyridinyl-5-yl)-amine]	7.42	≥ 8.52
COC1CCN(Cc2cc(Nc3ncc4ccn(-c5cc(F)c(CN6CCOCC6)c(F)c5)c4n3)ccc2C)C1 (racemic) [Example 417, [7-(3,5-Difluoro-4-morpholin-4-ylmethyl-phenyl)-7H-pyrrolo[2,3-d]pyrimidin-2-l]-[3-(3-methoxy-pyrrolidin-1-ylmethyl)-4-methyl-phenyl]-amine]	8.30	≥ 8.52
Cc1cc(Nc2ncc3ccn(-c4cc(F)c(CN5CCOCC5)c(F)c4)c3n2)cnc1N1C[C@@H](C)N[C@@H](C)C1 [Example 510, [7-(3,5-Difluoro-4-morpholin-4-ylmethyl-phenyl)-7H-pyrrolo[2,3-d]pyrimidin-2-yl]-[6-(cis-3,5-dimethyl-piperazin-1-yl)-5-methyl-pyridin-3-yl]-amine]	9.00	≥ 8.52
C[C@@H]1CN(Cc2ccc(Nc3ncc4ccn(-c5cc(F)c(CN6CCOCC6=O)c(F)c5)c4n3)cc2)C[C@H](C)N1 [Example 484, 4-(4-{2-[4-(cis-3,5-Dimethyl-piperazin-1-ylmethyl)-phenylamino]-pyrrolo[2,3-d]pyrimidin-7-yl}-2,6-difluoro-benzyl)-morpholin-3-one]	7.17	≥ 8.52
Cc1ccc(Nc2ncc3ccn(-c4cc(F)c(CN5CCOCC5)c(F)c4)c3n2)cc1CN1CCN(C=O)CC1 [Example 370, 4-{5-[7-(3,5-Difluoro-4-morpholin-4-ylmethyl-phenyl)-7H-pyrrolo[2,3-d]pyrimidin-2-ylamino]-2-methyl-benzyl}-piperazine-1-carbaldehyde]	7.50	≥ 8.52
